Reference: patent US20240366589A1, “NHE3-BINDING COMPOUNDS AND METHODS FOR INHIBITING PHOSPHATE TRANSPORT” (Ardelyx, Inc., priority 2013, published 2024)

Key:
[1] = system: absorption of sodium from the intestinal lumen; assay: Fecal form score (FFS) 16 h after oral dose in rats; type: in vivo, rat; details: oral gavage, 16 h post-dose, scale 1-5
Experimental: (§1) Inhibition of intestinal sodium and phosphate absorption. Urinary sodium concentration and fecal form were measured to assess the ability of selected example compounds to inhibit the absorption of sodium from the intestinal lumen. Eight-week old Sprague-Dawley rats were purchased from Charles River Laboratories (Hollister, CA), were housed 2 per cage, and acclimated for at least 3 days before study initiation. Animals were fed Harlan Teklad Global 2018 rodent chow (Indianapolis, IN) and water ad libitum throughout the study and maintained in a standard light/dark cycle of 6 AM to 6 PM. On the day of the study, between 4 PM and 5 PM, a group of rats (n=6) were dosed via oral gavage with test compound, or a pharmaceutically acceptable salt thereof, or vehicle (water) at a volume of 10 mL/kg.
(§2) After dose administration animals were placed in individual metabolic cages where they were also fed the same chow in meal form and watered ad libitum. At 16 h post-dose, the urine samples were collected and fecal form was assessed by two independent observations. Fecal forms were scored according to a common scale associated with increasing fecal water to the wettest observation in the cage's collection funnel (1, normal pellet; 2, pellet adhering to sides of collection funnel due to moisture; 3, loss of normal pellet shape; 4, complete loss of shape with a blotting pattern; 5, liquid fecal streams evident). A rat's fecal form score (FFS) was determined by averaging both observational scores for all rats within a group (n=6). The vehicle group average was 1.

[2] = system: phosphorus and calcium levels in the urine of rats; assay: Urinary excretion of phosphate and calcium in rats (16 h overnight urine); type: in vivo, rat; details: rats, oral gavage, 16 h post-dose
Rat NHE3 = target: T1, Rat NHE3 (Rattus norvegicus, UniProt P26433); assay: Cell-based NHE3 activity under prompt conditions (OK cells, BCECF pH recovery), rat NHE3; details: prompt conditions
T1 construct: expressed in transfected cells; host or cells: Opossum kidney (OK) cells (ATCC), electroporation
T1 sequence (P26433 29-831): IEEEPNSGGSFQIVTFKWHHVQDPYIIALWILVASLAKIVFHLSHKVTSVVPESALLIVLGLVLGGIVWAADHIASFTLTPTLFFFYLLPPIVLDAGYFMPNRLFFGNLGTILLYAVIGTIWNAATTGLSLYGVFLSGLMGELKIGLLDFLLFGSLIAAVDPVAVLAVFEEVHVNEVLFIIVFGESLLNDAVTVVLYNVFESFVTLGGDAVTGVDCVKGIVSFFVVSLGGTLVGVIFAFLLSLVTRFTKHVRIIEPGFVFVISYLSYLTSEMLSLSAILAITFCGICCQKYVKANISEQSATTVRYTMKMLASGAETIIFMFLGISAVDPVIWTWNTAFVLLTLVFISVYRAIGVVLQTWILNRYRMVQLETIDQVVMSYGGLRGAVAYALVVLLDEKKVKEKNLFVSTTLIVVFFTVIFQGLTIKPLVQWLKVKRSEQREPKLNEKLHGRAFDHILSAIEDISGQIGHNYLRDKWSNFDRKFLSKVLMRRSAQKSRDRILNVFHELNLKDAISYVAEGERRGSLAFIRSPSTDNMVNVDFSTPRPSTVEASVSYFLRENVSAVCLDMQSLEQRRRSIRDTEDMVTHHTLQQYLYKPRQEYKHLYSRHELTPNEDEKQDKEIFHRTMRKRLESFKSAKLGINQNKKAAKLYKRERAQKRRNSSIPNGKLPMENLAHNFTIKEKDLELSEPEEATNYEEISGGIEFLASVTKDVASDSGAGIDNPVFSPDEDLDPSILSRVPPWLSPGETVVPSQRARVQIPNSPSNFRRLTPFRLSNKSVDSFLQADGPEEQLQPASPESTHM
Experimental: (§3) Cell-based activity under Prompt Conditions. Rat or human NHE3-mediated Na^+-dependent H antiport was measured using a modification of the pH sensitive dye method originally reported by Paradiso (PNAS USA. 81:7436-7440, 1984). Opossum kidney (OK) cells were obtained from the ATCC and propagated per their instructions. The rat NHE3 gene (GenBank M85300) or the human NHE3 gene (GenBank NM_004174.1) was introduced into OK cells via electroporation, and cells were seeded into 96 well plates and grown overnight. Medium was aspirated from the wells, cells were washed twice with NaCl-HEPES buffer (100 mM NaCl, 50 mM HEPES, 10 mM glucose, 5 mM KCl, 2 mM CaCl2, 1 mM MgCl2, pH 7.4), then incubated for 30 min at room temperature with NH4Cl-HEPES buffer (20 mM NH4Cl, 80 mM NaCl, 50 mM HEPES, 5 mM KCl, 2 mM CaCl2, 1 mM MgCl2, pH 7.4) containing 5 μM bis(acetoxymethyl) 3,3′-(3′,6′-bis(acetoxymethoxy)-5-((acetoxymethoxy)carbonyl)-3-oxo-3H-spiro[isobenzofuran-1,9′-xanthene]-2′,7′-diyl)dipropanoate (BCECF-AM).
(§4) Cells were washed twice with Ammonium free, Na^+-free HEPES (100 mM choline, 50 mM HEPES, 10 mM glucose, 5 mM KCl, 2 mM CaCl2, 1 mM MgCl2, pH 7.4) and incubated in the same buffer for 10 minutes at room temperature to lower intracellular pH. […] Initial rates were plotted as the average 2 or more replicates, and pIC50 values were estimated using GraphPad Prism.
(§5) Cell-based activity of NHE3 Activity under ‘Prompt’ Conditions. This assay was performed as described in Example 1 (supra).

[3] = system: absorption of sodium from the intestinal lumen; assay: Inhibition of intestinal sodium absorption: urinary sodium (uNa) 16 h after single oral dose in rats; type: in vivo, rat; details: oral gavage, 16 h post-dose
Experimental: as §1, §2
For urine samples, the volumes were determined gravimetrically and centrifuged at 3,600×g. The supernatants were diluted 100-fold in deionized Milli-Q water then filtered through a 0.2 μm GHP Pall AcroPrep filter plate (Pall Life Sciences, Ann Arbor, MI) prior to analysis by ion chromatography. Ten microliters of each filtered extract was injected onto a Dionex ICS-3000 ion chromatograph system (Dionex, Sunnyvale, CA). Cations were separated by an isocratic method using 25 mM methanesulfonic acid as the eluent on an IonPac CS12A 2 mm i.d.×250 mm, 8 μm particle size cation exchange column (Dionex). Sodium was quantified using standards prepared from a cation standard mix containing Li^+, Na^+, NH4^+, K^+, Mg^2+, and Ca^2+ (Dionex). The mean mass of sodium urinated for every group in the 16 h period was determined with the vehicle group usually urinating approximately 21 mg sodium. The urine Na (uNa) for rats in the test groups were expressed as a percentage of the vehicle mean and the means were compared to that of the vehicle group by utilizing a one-way analysis of variance coupled with a Dunnett's post hoc test.
Further experiments were performed to test the compounds under the persistent and prompt conditions described above, and to test their effects on urinary excretion of sodium in rats. The latter was performed by orally dosing the compounds in rats (single dose) and measuring urinary Na excretion (as a % of vehicle). The results are indicated as percentage of urinary sodium (UNa %); low values indicate relatively active compounds.

Human NHE3 = target: T2, Human NHE3 (Homo sapiens, UniProt P48764); assay: Cell-based NHE3 activity under prompt conditions (OK cells, BCECF pH recovery), human NHE3; details: prompt conditions
T2 construct: expressed in transfected cells; host or cells: Opossum kidney (OK) cells (ATCC), electroporation
T2 sequence (P48764 26-834): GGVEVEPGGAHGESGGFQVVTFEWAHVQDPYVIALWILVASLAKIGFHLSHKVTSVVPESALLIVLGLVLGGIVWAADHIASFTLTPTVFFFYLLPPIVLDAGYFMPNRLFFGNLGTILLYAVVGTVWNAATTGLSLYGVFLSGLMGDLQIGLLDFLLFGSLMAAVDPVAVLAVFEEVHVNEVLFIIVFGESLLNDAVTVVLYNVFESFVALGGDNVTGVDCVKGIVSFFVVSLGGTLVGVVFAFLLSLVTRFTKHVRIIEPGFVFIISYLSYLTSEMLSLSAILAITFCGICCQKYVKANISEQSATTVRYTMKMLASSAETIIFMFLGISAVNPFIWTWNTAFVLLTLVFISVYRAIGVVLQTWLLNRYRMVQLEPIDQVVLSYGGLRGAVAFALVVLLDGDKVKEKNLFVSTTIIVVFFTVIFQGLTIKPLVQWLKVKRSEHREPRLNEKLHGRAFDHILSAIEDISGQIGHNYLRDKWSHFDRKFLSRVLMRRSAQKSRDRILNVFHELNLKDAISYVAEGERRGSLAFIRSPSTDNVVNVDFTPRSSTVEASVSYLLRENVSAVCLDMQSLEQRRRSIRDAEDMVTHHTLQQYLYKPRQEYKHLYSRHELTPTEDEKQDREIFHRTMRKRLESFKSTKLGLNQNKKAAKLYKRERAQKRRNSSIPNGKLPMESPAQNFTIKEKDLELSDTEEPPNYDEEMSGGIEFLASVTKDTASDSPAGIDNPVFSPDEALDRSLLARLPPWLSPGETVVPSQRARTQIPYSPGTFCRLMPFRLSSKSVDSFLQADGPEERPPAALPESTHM
Experimental: as §3, §4, §5

| Prompt Rat NHE3 pIC50 (Rat NHE3) | Prompt Human NHE3 pIC50 (Human NHE3) | Compound | Fecal Form Score average ([1]; dose 10 mg/kg) | Urine P % of control ([2]; dose 10 mg/kg) | Urine Na % of control ([3]; dose 10 mg/kg) | Fecal Form Score average ([1]; dose 3 mg/kg) | Urine P % of control ([2]; dose 3 mg/kg) | Urine Na % of control ([3]; dose 3 mg/kg) | Fecal Form Score average ([1]; dose 30 mg/kg) | Urine P % of control ([2]; dose 30 mg/kg) | Urine Na % of control ([3]; dose 30 mg/kg) |
| --- | --- | --- | --- | --- | --- | --- | --- | --- | --- | --- | --- |
| 6.30 | 6.90 | CN1Cc2c(Cl)cc(Cl)cc2C(c2cccc(S(=O)(=O)NCCOCCOCCOCCNC(=O)CN(CCN(CCN(CC(=O)NCCOCCOCCOCCNS(=O)(=O)c3cccc([C@@H]4CN(C)Cc5c(Cl)cc(Cl)cc54)c3)CC(=O)NCCOCCOCCOCCNS(=O)(=O)c3cccc([C@@H]4CN(C)Cc5c(Cl)cc(Cl)cc54)c3)CC(=O)NCCOCCOCCOCCNS(=O)(=O)c3cccc([C@@H]4CN(C)Cc5c(Cl)cc(Cl)cc54)c3)CC(=O)NCCOCCOCCOCCNS(=O)(=O)c3cccc([C@@H]4CN(C)Cc5c(Cl)cc(Cl)cc54)c3)c2)C1 (stereo in doubt) [compound 75] | 1 | 55% | 81% |  |  |  |  |  |  |
| <5.00 | <5.00 | CN1Cc2c(Cl)cc(Cl)cc2C(c2cccc(S(=O)(=O)NCCOCCOCCOCCNC(=O)CCC(CCC(=O)NCCOCCOCCOCCNS(=O)(=O)c3cccc([C@@H]4CN(C)Cc5c(Cl)cc(Cl)cc54)c3)(CCC(=O)NCCOCCOCCOCCNS(=O)(=O)c3cccc([C@@H]4CN(C)Cc5c(Cl)cc(Cl)cc54)c3)NCc3ccc(-c4ccc(Cl)cc4)cc3)c2)C1 (stereo in doubt) [compound 114] | 3 | 100% | 45% |  |  |  |  |  |  |
| 6.90 | 7.50 | CN1CCN(C(=O)NC(CCC(=O)NCCOCCOCCNS(=O)(=O)c2cccc(C3CN(C)Cc4c(Cl)cc(Cl)cc43)c2)(CCC(=O)NCCOCCOCCNS(=O)(=O)c2cccc([C@@H]3CN(C)Cc4c(Cl)cc(Cl)cc43)c2)CCC(=O)NCCOCCOCCNS(=O)(=O)c2cccc([C@@H]3CN(C)Cc4c(Cl)cc(Cl)cc43)c2)CC1 (stereo in doubt) [compound 153] |  |  |  | 3 | 84% | 28% |  |  |  |
| 6.70 | 6.50 | COCCNS(=O)(=O)c1cccc(C2CN(C)Cc3c(Cl)cc(Cl)cc32)c1 (stereo not drawn) [compound 2] | 1 | 80% | 115% |  |  |  |  |  |  |
| 6.90 | 6.80 | C/C(=C\c1cc(F)c(Oc2ccc(S(=O)(=O)NCCOCCOCCOCCN)cc2)c(F)c1)C(=O)N=C(N)N [compound 4] | 1 | 106% | 84% |  |  |  |  |  |  |
| 6.90 | 7.85 | C/C(=C\c1cc(F)c(Oc2ccc(S(=O)(=O)NCCOCCOCCOCCNC(=O)[C@H](O)[C@@H](O)C(=O)NCCOCCOCCOCCNS(=O)(=O)c3ccc(Oc4c(F)cc(/C=C(\C)C(=O)N=C(N)N)cc4F)cc3)cc2)c(F)c1)C(=O)N=C(N)N [compound 5] | 1 | 65% | 51% |  |  |  | 2 | 105% | 23% |
| 6.30 | 7.20 | N=C(N)Nc1nc(-c2cccc(S(=O)(=O)NCCOCCOCCN)c2)c2cc(Cl)ccc2n1 [compound 7] | 1 | 90% | 76% |  |  |  |  |  |  |
| 6.90 | 6.40 | N=C(N)Nc1nc(-c2ccc(S(=O)(=O)NCCOCCOCCN)cc2)c2cc(Cl)ccc2n1 [compound 8] | 1 | 101% | 73% |  |  |  | 2 | 114% | 31% |
| 6.50 | 7.10 | C/C(=C\c1cc(F)c(Oc2ccc(S(=O)(=O)NCCOCCOCCOCCNC(=O)CN(C)CC(=O)NCCOCCOCCOCCNS(=O)(=O)c3ccc(Oc4c(F)cc(/C=C(\C)C(=O)N=C(N)N)cc4F)cc3)cc2)c(F)c1)C(=O)N=C(N)N [compound 9] | 1 | 77% | 56% |  |  |  |  |  |  |
| 6.65 | 7.50 | NCCOCCOCCOc1cccc(-c2nc(N=C(N)N)nc3ccc(Cl)cc23)c1 [compound 10] | 1 | 80% | 76% |  |  |  |  |  |  |
| 6.95 | 6.80 | NCCOCCOCCOc1ccc(-c2nc(N=C(N)N)nc3ccc(Cl)cc23)cc1 [compound 11] | 1 | 64% | 60% |  |  |  | 2 | 96% | 29% |
| 6.10 | 7.00 | N=C(N)Nc1nc(-c2cccc(S(=O)(=O)NCCOCCOCCOCCN)c2)c2cc(Cl)ccc2n1 [compound 12] | 1 | 94% | 82% |  |  |  |  |  |  |
